From patent US5622969A, “Method of treating leukotriene caused diseases with N-benzyl dihydroindole LTD4 antagonists” (Eli Lilly and Company, priority 1995, dated 1997)

Experiments:
[1] = biological target: T1, LTD4 receptor (guinea pig lung membrane) (Cavia porcellus, UniProt Q2NNR5); assay: Assay 3 - Guinea Pig Lung Membrane [3H] LTD4 Radioligand Binding (GPLM binding); details: [3H] LTD4, guinea pig lung membrane, 30 min, 30° C., pH 6.5; for Ki: read-out: GPLM binding (pKi) (converted)
T1 construct: guinea-pig lung membrane preparation; from tissue; host or cells: guinea pig lung membranes
T1 sequence (Q2NNR5 1-340): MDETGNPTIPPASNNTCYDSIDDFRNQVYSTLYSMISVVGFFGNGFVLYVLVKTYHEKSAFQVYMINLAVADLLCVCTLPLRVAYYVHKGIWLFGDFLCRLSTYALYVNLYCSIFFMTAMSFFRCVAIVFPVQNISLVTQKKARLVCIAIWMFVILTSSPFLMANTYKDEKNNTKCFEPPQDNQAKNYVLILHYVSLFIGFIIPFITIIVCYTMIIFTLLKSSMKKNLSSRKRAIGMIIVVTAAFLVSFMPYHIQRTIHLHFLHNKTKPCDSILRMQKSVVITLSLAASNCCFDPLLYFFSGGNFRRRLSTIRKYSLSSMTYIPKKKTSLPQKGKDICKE
Description: Assay 3--Guinea Pig Lung Membrane [^3 H] LTD4 Radioligand Binding: [^3 H] LTD4 was purchased from New England Nuclear (Boston, Mass.). All other chemicals were purchased from Sigma (St. Louis, Mo.). Incubations were performed in silanised glass tubes and contained 30 mg of guinea-pig lung membrane preparation (Saussy, et al., Mol. […] The binding reaction was terminated after 30 min. at 30° C. by the addition of 4 ml ice cold wash buffer (25 mM Tris --HCl, pH 7.5), followed immediately by vacuum filtration over Whatman (GF/C glass fibre filters, using a Brandel (Gaithersburg, Md.) 48 place harvester. The tubes and filter were washed 3×4 ml in cold wash buffer. Retained radioactivity was determined by liquid scintillation counting at 50% counting efficiency using Ready Protein Plus cocktail (Beckman, Fullerton, Calif.). Data were analyzed using linear regression analysis of log-logit plots of the values between 10% and 90% of control biding to calculate I[…] and slope factors (pseudo-Hill coefficients). IC50 values were corrected for radioligand concentrations (Cheng and Prusoff, Biochem. Pharmacol. 22:3099-3108, 1973) to calculate Ki values.

[2] = biological target: T2, LTD4 receptor (intestinal smooth muscle receptors, guinea pig ileum) (Cavia porcellus, UniProt Q2NNR5); assay: Assay 2 - Guinea Pig Ileum, antagonism of LTD4 contraction; details: drug added 30 minutes prior, read-out: GP ileum (pKb) (converted)
T2 construct: Terminal ilea were removed from the animals; from tissue; host or cells: guinea pig terminal ileum segments
T2 sequence (Q2NNR5 1-340): T1 sequence (Q2NNR5 1-340)
Description: Assay 2--Guinea Pig Ileum:
Guinea pig ileum was used to determine the potency of novel LTD4 receptor antagonists on intestinal smooth muscle receptors. Terminal ilea were removed from the animals exsanguinated after CO2 asphyxiation and cut into smaller segments of approximately 2 to 3 cm. Tissues were placed in organ baths containing Krebs'bicarbonate solution prepared without indomethacin and 1-cysteine and aerated with 95% O2 and 5% CO2. After a 60 minute equilibration period, 3 submaximal contractions to histamine (3×10^-6 M) were obtained on all tissues. A cumulative concentration-response curve to LTD4 was then generated using the method of Van Rossum (Arch. Int. Pharmacodyn. Ther. 143:299, 1963). Agonist was washed from the baths and the tissues permitted to recover. After a second LTD4 concentration-response curve was produced, the ilea were washed once again and permitted to re-equilibrate. Experimental drug was added to the baths 30 minutes prior to a final LTD4 concentration-response curve.
(§1) The contractions of trachea and ilea to LTD4 in the presence of the drug was compared to responses in the absence of drug. KB values were calculated by the method of Furchgott (Ann. N.Y. Acad. Sci., 139:553, 1967) using the following equation: KB =[Antagonist]/Dose-Ratio-1.

[3] = biological target: T3, leukotriene receptor (guinea pig trachea) (Cavia porcellus, UniProt Q2NNR5); assay: Assay 1 - Guinea Pig Tracheae, leukotriene receptor antagonism (LTD4 contraction); details: antagonist added 45 minutes prior, read-out: GP trach (pKb) (converted)
T3 construct: Trachea were cut into ring segments and the epithelium removed; from tissue; host or cells: guinea pig tracheal rings, epithelium removed (male Hartley)
T3 sequence (Q2NNR5 1-340): T1 sequence (Q2NNR5 1-340)
Description: Assay 1--Guinea Pig Tracheae
Leukotriene receptor antagonism was evaluated in isolated smooth muscles by the following procedure:
Male Hartley guinea pigs weighing 250-400 grams were asphyxiated with CO2 and exsanguinated. Trachea were excised and placed in Krebs'-bicarbonate solution of the following composition in mM/liter: NaCl, 118.2; NaHCO3, 24.8; KCl, 4.6; KH2 PO4, 1.2, MgSO4.7H2 O, 1.2; dextrose, 10.0; CaCl2.2H2 O, 2.5; 1-cysteine, 3.0, and indomethacin, 3 μM. Trachea were cut into ring segments and the epithelium removed by gently rubbing the luminal surface with a cotton swab. Tracheal rings were placed on supports constructed from two 1 inch 30 gauge disposable stainless steel hypodermic needles (Hooker, et al., 1977, Blood Vessels 14:1-11), and transferred to organ baths containing Krebs' solution maintained at 37° C. and aerated with 95% O2 and 5% CO2. Isometric measurements were made with a Grass FTO3C force-displacement transducer and recorded on a Grass polygraph as changes in grams of force. After approximately 60 minutes of equilibration, a single submaximal concentration of LTD4 (3×10^-8 M) was used to contract the trachea. Two LTD4 concentration-response curves were then generated using the cumulative response technique of Van Rossum (1963). A potential leukotriene receptor antagonist was added to the tissue bath 45 minutes prior to generation of the second LTD4 concentration-response curve.
as §1

Row | SMILES | GPLM binding (pKi) [1] | Kb [2] [nM] | Kb [3] [nM] | Ki [1] [nM]
1 | Clc1ccc2ccc(/C=C/c3cccc(CN4CCc5cccc(CCc6nnn[nH]6)c54)c3)nc2c1 [Example 4, 5-[2-[1-[3-[2-E-(7-Chloroquinolin-2-yl)ethenyl]benzyl]-2,3-dihydroindol-7-yl]ethyl]-1H-tetrazole] | 8.3 | 2.34 | 28.8 | –
2 | Clc1ccc2ccc(COc3cccc(CN4CCc5cccc(CCc6nnn[nH]6)c54)c3)nc2c1 [Example 5, 5-[2-[1-[3-(7-Chloroquinolin-2-ylmethoxy)benzyl]-2,3-dihydroindol-7-yl]-ethyl]-1H-tetrazole] | 8.0 | 3.89 | 8.32 | –
3 | Clc1ccc2ccc(COc3ccc(CN4CCc5cccc(CCc6nnn[nH]6)c54)cc3)nc2c1 [Example 6, 5-[2-[1-[4-(7-Chloroquinolin-2-ylmethoxy)benzyl]-2,3-dihydroindol-7-yl]-ethyl]-1H-tetrazole] | 7.6 | 3.24 | 25.7 | –

Continued, values first:

Row | GPLM binding (pKi) [1] | Kb [2] [nM] | Kb [3] [nM] | Ki [1] [nM] | SMILES
4 | 7.3 | 11.2 | 15.8 | – | c1cc(CN2CCc3cccc(CCc4nnn[nH]4)c32)cc(OCc2ccc3ccccc3n2)c1 [Example 7, 5-[2-[1-[3-(Quinolin-2-ylmethoxy)benzyl]-2,3-dihydroindol-7-yl]-ethyl]-1H-tetrazole]
5 | 7.8 | 2.51 | – | – | C(=C\c1ccc2ccccc2n1)/c1cccc(CN2CCc3cccc(CCc4nnn[nH]4)c32)c1 [Example 9, 5-[2-[1-[3-[2-E-(Quinolin-2-yl)ethenyl]benzyl]-2,3-dihydroindol-7-yl]ethyl]-1H-tetrazole]
6 | – | – | – | 2.45 | Clc1ccc2ccc(/C=C/c3cccc(CN4CCc5cccc(OCc6nn[nH]n6)c54)c3)nc2c1 [Example 10, 5-[1-[3-[2-E-(7-Chloroquinolin-2-yl)ethenyl]benzyl]-2,3-dihydroindol-7-yloxymethyl]-1H-tetrazole]
7 | – | – | – | 2.34 | Clc1ccc2ccc(/C=C/c3ccc(CN4CCc5cccc(CCc6nnn[nH]6)c54)cc3)nc2c1 [Example 11, 5-[2-[1-[4-[2-E-(7-Chloroquinolin-2-yl)ethenyl]benzyl]-2,3-dihydroindol-7-yl]-ethyl]-1H-tetrazole]
